Patent US11357779B2 (G1 Therapeutics, Inc., priority 2018, dated 2022)
Like-named read-outs stand apart in the source and are kept apart here.

Legend:
ME-016 tumor = assay: Murine BRAFmut melanoma PDX model, tumor growth and survival; type: in vivo; conditions: ME-016 tumor-containing mice; Compound I 100 mg/kg, dabrafenib 25 mg/kg, trametinib 1 mg/kg
Protocol: Mice containing a ME-016 tumor were treated with vehicle, Compound I (100 mg/kg), dabrafenib (25 mg/kg), trametinib (1 mg/kg), Compound I+dabrafenib, Compound I+trametinib, dabrafenib+trametinib, and Compound I+dabrafenib+trametinib.

[1] = abemaciclib, cited from earlier work
[2] = cited from earlier work; for AUC0-24,ss: geometric mean; for AUC0-10,ss: arithmetic mean
[3] = cited from earlier work
[4] = trial not given; cited from earlier work
[5] = Steady-state AUC0-24,ss, (AUC0-24,ss)/dose, half-life and time to steady state: Compound I versus palbociclib, ribociclib, abemaciclib; type: in vivo, human; conditions: for (AUC0-24,ss)/Dose (mg): in h·ng/mL/mg; for Time to Steady State / Time to Steady-State: FDA labeled dose, five half-lives; for AUC(0-t): human, in vivo, read-out: Extrapolated AUC0-24,ss
Excerpt: The time to reach steady state was defined as five half-lives (97% steady state achieved). […] The AUC data are presented as the arithmetic mean. […] The AUC data are presented as the geometric mean. The steady-state AUC0-24 for various BID doses of abemaciclib provided in Table 89 was obtained from the above cited prior published studies. The AUC data are presented as the geometric mean.

[6] = Grade 3/4 neutropenia and leukopenia; cited from earlier work
[7] = MONALEESA-2; cited from earlier work

With `CC(C)(C)c1nc(-c2cccc(NS(=O)(=O)c3c(F)cccc3F)c2F)c(-c2ccnc(N)n2)s1` [Dabrefinib] the “Median OS” value (ME-016 tumor) was 32 days.
In the case of `CC(=O)Nc1cccc(-n2c(=O)n(C3CC3)c(=O)c3c(Nc4ccc(I)cc4F)n(C)c(=O)c(C)c32)c1` [Trametinib], the “Median OS” value (ME-016 tumor) is reported as 42.5 days.
In the case of `CCN1CCN(Cc2ccc(Nc3ncc(F)c(-c4cc(F)c5nc(C)n(C(C)C)c5c4)n3)nc2)CC1` [abemaciclib, 2-pyrimidinamine, N-[5-[(4-ethyl-1-piperazinyl)methyl]-2-pyridinyl]-5-fluoro-4-[4-fluoro-2-methyl-1-(1-methylethyl)-1H-benzimidazol-6-yl]-], the “estimated geometric mean accumulation ratio” value ([1]; based on AUC) is given as 3.2 (59% CV), the “estimated geometric mean accumulation ratio” value ([1]; based on Cmax) is given as 2.3 (50% CV) and the T1/2 ([1]; human) is given as “roughly 18.3 hours”. For the same compound, the “AUC0-24,ss” value ([2]; 75 mg BID) was 1300 ng·h/mL, the “AUC0-24,ss” value ([2]; 100 mg BID) was 3910 ng·h/mL and the “AUC0-24,ss” value ([2]; 150 mg BID) was 4280 ng·h/mL. For the same compound, the “AUC0-24,ss” value ([2]; 200 mg BID) was 5520 ng·h/mL, the “Diarrhea, patients” value ([3]; MONARCH 1, abemaciclib alone) was 90% and the “Grade 3 diarrhea, patients” value ([3]; MONARCH 1, abemaciclib alone) was 20%. For the same compound, the “Neutropenia, patients” value ([3]; MONARCH 1, abemaciclib alone) was 37%, the “Grade >3 decrease in neutrophil count (based on laboratory findings), patients” value ([3]; MONARCH 1) was 27% and the “patients with diarrhea required a dose reduction” value [4] was 22%. For the same compound, the “patients with diarrhea required dose omission” value [4] was 22%, the “(AUC0-24,ss)/Dose (mg)” value ([5]; 75 mg BID) was 17.33 and the “(AUC0-24,ss)/Dose (mg)” value ([5]; 100 mg BID) was 39.10. The “(AUC0-24,ss)/Dose (mg)” value ([5]; 150 mg BID) was 28.53 and the “(AUC0-24,ss)/Dose (mg)” value ([5]; 200 mg BID) was 27.60.
In the case of `CC(=O)c1c(C)c2cnc(Nc3ccc(N4CCNCC4)cn3)nc2n(C2CCCC2)c1=O` [palbociclib, 6-acetyl-8-cyclopentyl-5-methyl-2-(5-piperazin-1-yl-pyridin-2-ylammino)-8H-pyrido-[2,3-d]-pyrimidin-7-one], the “AUC0-10,ss” value ([2]; 25 mg QD) is listed as 119 ng·h/mL, the “AUC0-10,ss” value ([2]; 50 mg QD) is listed as 274 ng·h/mL and the “AUC0-10,ss” value ([2]; 75 mg QD) is listed as 492 ng·h/mL. For the same compound, the “AUC0-10,ss” value ([2]; 100 mg QD) was 592 ng·h/mL, the “Mean Half-Life” value ([2]; 125 mg QD, FDA labeled dose) was 26.5 h and the “AUC0-10,ss” value ([2]; 125 mg QD) was 724 ng·h/mL. For the same compound, the “AUC0-10,ss” value ([2]; 150 mg QD) was 1084 ng·h/mL, the “patients requiring a dose interruption” value [6] was 71% and the “patients requiring a dose reduction” value [6] was 35%. The “Extrapolated AUC0-24,ss” value ([5]; 100 mg QD, AUC0-24=(AUC0-10)*2.49655) was 1478 ng·h/mL, the “Time to Steady State” value ([5]; 125 mg QD) was 5.5 days and the “Time to Steady-State” value ([5]; 125 mg QD) was 132.5 h. For the same compound, the AUC(0-t) ([5]; 25 mg QD, AUC0-24=(AUC0-10)*2.49655) was 297 ng·h/mL, the AUC(0-t) ([5]; 50 mg QD, AUC0-24=(AUC0-10)*2.49655) was 684 ng·h/mL and the AUC(0-t) ([5]; 75 mg QD, AUC0-24=(AUC0-10)*2.49655) was 1230 ng·h/mL. It also gave an AUC(0-t) ([5]; 125 mg QD, AUC0-24=(AUC0-10)*2.49655) of 1810 ng·h/mL and an AUC(0-t) ([5]; 150 mg QD, AUC0-24=(AUC0-10)*2.49655) of 2710 ng·h/mL.
In the case of `CN(C)C(=O)c1cc2cnc(Nc3ccc(N4CCNCC4)cn3)nc2n1C1CCCC1` [ribociclib, 7-cyclopentyl-N,N-dimethyl-2-((5-(piperazin-1-yl)pyridin-2-yl)amino)-7H-pyrrolo[2,3-d]pyrimidine-6-carboxamide], the “neutropenia, most frequently reported adverse reaction” value [7] is given as 75%, the “Time to Steady State” value ([5]; 600 mg QD) is given as 6.8 days and the “Time to Steady-State” value ([5]; 600 mg QD) is given as 162.5 h.
